Measured values: patent US5591728A, “New phosphonic acid compounds” (Adir Et Compagnie, priority 1993, dated 1997)
Where a name gives a salt, the structure may show the parent alone.

Assays:
[1] = tested on: big ET-1-induced pressor responses (inhibition of ECE); assay: In vivo study on pithed rats: big ET-1-induced pressor response; parameters: species or system Sprague-Dawley rats; conditions: for IC50 with respect to big ET-1: big ET-1 1 nmol/kg injection, product given by infusion
Description: (§1) Sprague-Dawley rats (300400 g) are anesthetized with ether. The animals are then pithed and placed under artificial respiration. The vagus nerves are sectioned and the carotid arteries ligated. A catheter is introduced into one of the carotid arteries to measure arterial blood pressure. A second catheter is introduced into the vein of the penis to enable substances to be injected.
After a stabilization period, the animals receive an injection of endothelin-1 (ET-1; 0.5 nmol/kg) or its precursor, big endothelin-1 (big ET-1; 1 nmol/kg).

[2] = tested on: pressor responses obtained with big ET-1; assay: In vitro study on perfused isolated rat kidney: pressor response to big ET-1; parameters: species or system male Wistar rats; conditions: big ET-1 0.4 nmol bolus
Experimental: The studies are performed on kidneys prepared from male Wistar rats (300400 g). The rats are anesthetized with pentobarbitone sodium (50 mg/kg i.p.) and the left kidney is prepared so as to permit perfusion with Tyrode solution. The variations in perfusion pressure are measured continuously. The perfusion flow rate is 6 ml/min. After stabilization, a bolus injection of ET- 1 (0.03 nmol) or of big ET-1 (0.4 nmol) is performed and the pressor response is recorded. […] The IC50 values of the products are calculated and the results are given in μM.

[3] = tested on: ET-1-induced hypertension; assay: In vivo study on pithed rats: ET-1-induced hypertension; parameters: species or system Sprague-Dawley rats; conditions: ET-1 0.5 nmol/kg
Description: as §1
After a stabilization period, the animals receive an injection of endothelin-1 (ET-1; 0.5 nmol/kg) or its precursor, big endothelin-1 (big ET-1; 1 nmol/kg). The pressor responses are recorded and, after the pressure has returned to its initial value (1 h 30 min to 2 hours), a second injection of ET-1 or of big ET-1 is given in the presence or absence of an infusion of a product of the invention or of the reference substance, phosphoramidon. Phosphoramidon and the products of the invention had no effect on ET-1-induced hypertension.

Compound	IC50 with respect to big ET-1 [1]	IC50 [2]	inhibition of big ET-1-induced pressor responses ([1]; big ET-1 1 nmol/kg, in words)	effect on ET-1-induced hypertension [3]	inhibition of pressor responses obtained with big ET-1 ([2]; in words)
CC(C)C[C@H](NP(=O)(O)OCC(O)CO)C(=O)N[C@@H](Cc1c[nH]c2ccccc12)C(=O)O (stereo partly drawn) [Example 1, N-[(2,3-Dihydroxypropoxy)hydroxyphosphinyl]-(S)Leu-(S) Trp-OH disodium salt]	100 µg/kg/min	4 µM	–	–	–
CCOC(=O)[C@H](Cc1c[nH]c2ccccc12)NC(=O)[C@H](CC(C)C)NP(=O)(O)OCCO [Example 3, N-[(2-Hydroxyethoxy)hydroxyphosphinyl]-(S)Leu-(S)Trp-OEt disodium salt]	280 µg/kg/min	5 µM	–	–	–
CC(C)C[C@H](NP(=O)(O)OCCO)C(=O)N[C@@H](Cc1c[nH]c2ccccc12)C(=O)O [Example 4, N-[(2-Hydroxyethoxy)hydroxyphosphinyl]-(S)Leu-(S)Trp-OH disodium salt]	430 µg/kg/min	7 µM	–	–	–
CC(C)C[C@H](NP(=O)(O)OC(CO)CO)C(=O)N[C@@H](Cc1c[nH]c2ccccc12)C(=O)O [Example 8, N-{[(1-Hydroxymethyl-2-hydroxy)ethoxy]hydroxyphosphinyl]-(S)Leu-(S) Trp-OH dilithium salt]	480 µg/kg/min	–	–	–	–
CCOC(=O)[C@H](Cc1c[nH]c2ccccc12)NC(=O)[C@H](CC(C)C)NP(=O)(O)OCCCN [Example 9, N-[(3-Aminopropoxy)hydroxyphosphinyl]-(S)Leu-(S)Trp-OEt lithium salt]	200 µg/kg/min	–	–	–	–
CC(C)C[C@H](NP(=O)(O)OCCC(O)CO)C(=O)N[C@@H](Cc1c[nH]c2ccccc12)C(=O)O (stereo partly drawn) [Example 12, N-[(3,4-Dihydroxybutoxy)hydroxyphosphinyl]-(S)Leu-(S) Trp-OH dilithium salt]	140 µg/kg/min	–	–	–	–
CC(C)C[C@H](NP(=O)(O)O[C@@H]1O[C@@H](C)[C@H](O)[C@@H](O)[C@H]1O)C(=O)N[C@@H](Cc1c[nH]c2ccccc12)C(=O)[O-].CC(C)C[C@H](NP(=O)(O)O[C@@H]1O[C@@H](C)[C@H](O)[C@@H](O)[C@H]1O)C(=O)N[C@@H](Cc1c[nH]c2ccccc12)C(=O)[O-].[Na+].[Na+] [Phosphoramidon, N-[α-(S)-(rhamnopyranosyloxy) hydroxyphosphinyl]-(S)leu-(S) Trp-OH disodium salt, reference compound]	125 µg/kg/min	0.9 µM	inhibited big ET-1-induced pressor responses in a dose-dependent manner	no effect	substantially inhibited
N-[((R)-2,3-Dihydroxypropoxy)hydroxyphosphinyl]-(S)Leu-(S)Trp-OH dilithium salt [Example 10]	230 µg/kg/min	–	–	–	–
N-[((S)-2,3-Dihydroxypropoxy)hydroxyphosphinyl]-(S)Leu-(S)Trp-OH dilithium salt [Example 11]	100 µg/kg/min	–	–	–	–
